Results as given in patent US20210246109A1, “POTENT AND SELECTIVE INHIBITORS OF CYTOCHROME P450” (University of Kentucky Research Foundation, priority 2020, published 2021).
Values joined by “and” are separate entries in the source; they are usually repeats but may differ in a detail not shown here. Equal values may be shown once. Read-outs that look alike come from different tables or passages of the source.

Tests used:
HEK = experiment: Cytotoxicity, resazurin, 72 hours after compound addition; assay type: cell-based
Method: Cytotoxicity was assessed at 72 hours after compound addition using resazurin. The compounds that function as selective 1B1 inhibitors had no effect on cell health. This is an essential feature for any chemopreventative agent or molecules intended to block the detrimental action of an enzyme.

CYP1B1 = biological target: T1, CYP1B1 (Homo sapiens, UniProt Q16678); experiment: EROD assay in inducible CYP1B1 cell line; assay type: cell-based
T1 construct: expressed in transfected cells
T1 sequence (Q16678 1-543): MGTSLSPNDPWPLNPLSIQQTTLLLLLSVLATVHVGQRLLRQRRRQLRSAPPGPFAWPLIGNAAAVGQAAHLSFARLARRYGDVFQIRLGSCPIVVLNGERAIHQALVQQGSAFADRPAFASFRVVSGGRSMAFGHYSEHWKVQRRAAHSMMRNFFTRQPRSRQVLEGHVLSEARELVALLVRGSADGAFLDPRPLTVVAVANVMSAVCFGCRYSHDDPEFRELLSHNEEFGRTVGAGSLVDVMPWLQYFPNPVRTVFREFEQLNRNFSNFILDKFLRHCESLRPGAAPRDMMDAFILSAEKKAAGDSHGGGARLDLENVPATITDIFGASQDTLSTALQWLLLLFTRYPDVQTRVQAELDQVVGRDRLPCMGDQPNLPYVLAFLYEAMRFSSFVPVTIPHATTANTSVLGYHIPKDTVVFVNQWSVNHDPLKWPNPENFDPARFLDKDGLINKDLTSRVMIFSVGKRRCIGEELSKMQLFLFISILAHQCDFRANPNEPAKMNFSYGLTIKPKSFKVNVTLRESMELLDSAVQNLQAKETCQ
Method: (§1) The activity of the inhibitors was assessed in a novel cell based assay generated for the purpose of this project. Enzymatic turnover of CYP1B1 was measured using the ethoxy-resorufin-O-deethylase (EROD) assay with the fluorescent substrate, resorufin ethyl ether. Cell lines were generated where the gene for CYP1B1 alone or CYP1B1 and cytochrome P450 reductase (CPR) were both under the control of an inducible promoter. A cell line was generated for counter screening where the gene for CYP1A1 was used. CYP1A1 is the closest family member to CYP1B1.

CYP1A1 = biological target: T2, CYP1A1 (Homo sapiens, UniProt P04798); experiment: EROD assay in CYP1A1 counter-screen cell line; assay type: cell-based; details: for SI 1B1:1A1: selectivity index
T2 construct: expressed in transfected cells
T2 sequence (P04798 1-512): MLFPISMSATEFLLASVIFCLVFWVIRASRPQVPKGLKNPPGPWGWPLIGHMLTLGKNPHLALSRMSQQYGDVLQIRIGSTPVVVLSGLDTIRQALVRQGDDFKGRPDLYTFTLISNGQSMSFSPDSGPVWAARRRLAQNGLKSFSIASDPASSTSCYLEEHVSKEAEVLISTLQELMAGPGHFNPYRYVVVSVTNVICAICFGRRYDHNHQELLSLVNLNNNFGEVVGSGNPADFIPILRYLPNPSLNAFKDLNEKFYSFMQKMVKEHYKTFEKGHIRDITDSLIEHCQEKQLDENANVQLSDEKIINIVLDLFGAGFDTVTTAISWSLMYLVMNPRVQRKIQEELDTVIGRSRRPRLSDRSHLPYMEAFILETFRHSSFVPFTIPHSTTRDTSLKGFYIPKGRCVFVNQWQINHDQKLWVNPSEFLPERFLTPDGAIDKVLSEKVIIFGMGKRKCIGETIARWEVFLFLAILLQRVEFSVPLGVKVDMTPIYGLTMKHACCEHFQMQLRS
Method: as §1

[1] = biological target: T3, pooled human liver microsomes (pHLMs) (Homo sapiens, UniProt P05177); experiment: EROD counterscreen in pooled human liver microsomes; assay type: biochemical; details: human, microsomes, Table 3; read-out: IC50 pHLM
T3 sequence (P05177 2-516): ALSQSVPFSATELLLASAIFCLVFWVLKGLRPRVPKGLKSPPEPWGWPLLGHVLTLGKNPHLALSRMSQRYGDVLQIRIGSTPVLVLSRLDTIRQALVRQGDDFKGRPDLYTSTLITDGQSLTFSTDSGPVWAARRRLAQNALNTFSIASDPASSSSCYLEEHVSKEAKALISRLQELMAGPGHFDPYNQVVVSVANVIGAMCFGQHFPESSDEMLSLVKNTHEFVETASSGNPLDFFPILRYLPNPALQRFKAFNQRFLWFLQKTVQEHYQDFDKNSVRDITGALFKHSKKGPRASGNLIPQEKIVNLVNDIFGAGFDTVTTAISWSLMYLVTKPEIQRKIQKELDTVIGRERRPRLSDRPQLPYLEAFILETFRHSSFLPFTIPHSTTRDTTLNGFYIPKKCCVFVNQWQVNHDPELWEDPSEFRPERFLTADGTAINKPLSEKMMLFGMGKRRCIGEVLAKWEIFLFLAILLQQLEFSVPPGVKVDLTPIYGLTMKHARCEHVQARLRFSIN
Text: Human liver microsomes were used as a counterscreen to experimentally determine the magnitude of inhibitor selectivity.

[2] = Table 1, 72 hours, resazurin, read-out: Cytotoxicity IC50
[3] = Table 3, HEK, read-out: HEK cytotoxicity
[4] = Table 2, EROD assay, read-out: IC50 CYP1B1
[5] = Table 2, EROD assay, read-out: IC50 CYP1A1

SMILES | IC50 (CYP1B1; Table 3, read-out: IC50 1B1) | IC50 (CYP1A1; Table 3, read-out: IC50 1A1) | also measured
O=c1cc(-c2ccccc2)oc2c1ccc1ccccc12 [ANF, reference compound] | – | – | IC50 (HEK; [2]): > 10 µM; IC50 (HEK; [3]): > 10 µM
COc1ccc(/C=C/c2ccccc2)c(OC)c1 [Compound 1] | – | – | activity as CYP1B1 inhibitor, in words (CYP1B1): poor activity
COc1ccc(/C=C/c2ccncc2)c(OC)c1 [Compound 6] | – | – | activity as CYP1B1 inhibitor, in words (CYP1B1): potent
COc1ccc(/C=C/c2cc[n+](C)cn2)c(OC)c1 [Compound 7] | – | – | activity as CYP1B1 inhibitor, in words (CYP1B1): poor activity
N#CCOc1ccc(/C=C/c2ccncn2)cc1 [Compound 13] | – | – | activity as CYP1B1 inhibitor, in words (CYP1B1): potent
COc1ccc(/C=C/c2cc[n+](C)cn2)c(OC)c1.[I-] [GL461] | 13900 nM | > 10000 nM | HEK cell viability % at 10 μM (HEK; Table 3, HEK): 103%
COc1ccc(/C=C/c2ccccc2)c(OC)c1 [GL469] | – | 4460 nM and > 10000 nM | HEK cell viability % at 10 μM (HEK; Table 3, HEK): 124.2%; IC50 [1]: 6 µM
O=c1[nH]c(-c2ccccn2)nc2ccccc12 [GL518] | 2440 nM | – | –
COc1ccc(-c2nc3ccccc3c(=O)n2CC#N)c(OC)c1 [GL519] | 970 nM | > 10000 nM | HEK cell viability % at 10 μM (HEK; Table 3, HEK): 88.7%
COc1cc(-c2nc3ccc(I)cc3c(=O)[nH]2)ccc1OCC#N [GL551] | < 0.25 nM | 560 nM | IC50 [1]: > 3 µM
COc1cc(-c2nc(OCC#N)c3ccccc3n2)ccc1OCC#N [GL557] | < 0.7 nM | 1720 nM | –
O=C(NCCCOc1ccc(CCc2ccncn2)cc1)OCCOCCOCCOC(=O)NC12CC3CC(CC(C3)C1)C2 [GL594] | 9400 nM | 1100 nM | –
N#CCOc1ccc(-c2nc(-c3cccnc3)cs2)cc1 [GL641] | – | – | IC50 (CYP1B1; [4]): 0.381 nM; IC50 (CYP1A1; [5]): 2610 nM; SI 1B1:1A1 (CYP1A1): 6833
N#Cc1ccc(-c2csc(-c3ccc(O)cc3)n2)cc1 [GL649] | – | – | IC50 (CYP1B1; [4]): 931 nM; IC50 (CYP1A1; [5]): 16400 nM; SI 1B1:1A1 (CYP1A1): 17.6
O=c1[nH]c(-c2ccc3ccccc3n2)nc2ccccc12 [GL651] | 2.8 nM | 1100 nM | –
N#CCOc1ccc(/C=C/c2ccc(COC#N)cc2COC#N)cc1 [GL652] | 19 nM | 1860 nM | –

SMILES | IC50 (CYP1B1; Table 3, read-out: IC50 1B1) | IC50 (CYP1A1; Table 3, read-out: IC50 1A1) | also measured
N#Cc1ccc(-c2csc(-c3cccnc3)n2)cc1 [GL656] | – | – | IC50 (CYP1B1; [4]): 391 nM
Cn1c(-c2ccc3ccccc3n2)nc2ccccc2c1=O [GL659] | > 1000 nM | > 10000 nM | –
C#CCOc1ccc(-c2nc(-c3ccc(C#N)cc3)cs2)cc1 [GL664] | – | – | IC50 (CYP1B1; [4]): 202 nM; IC50 (CYP1A1; [5]): 696 nM; SI 1B1:1A1 (CYP1A1): 3.44
Fc1ccc(-c2csc(-c3ccccn3)n2)cc1C(F)(F)F [GL666] | – | – | IC50 (CYP1B1; [4]): 83.8 nM; IC50 (CYP1A1; [5]): 240 nM; SI 1B1:1A1 (CYP1A1): 2.86
COc1ccc(-c2nc(-c3ccc(O)cc3)cs2)c(OC)c1 [GL673] | – | – | IC50 (CYP1B1; [4]): 101 nM
Oc1ccc(-c2nc(-c3ccc(F)c(C(F)(F)F)c3)cs2)cc1 [GL678] | – | – | IC50 (CYP1B1; [4]): 208 nM; IC50 (CYP1A1; [5]): 14700 nM; SI 1B1:1A1 (CYP1A1): 70.5
O=c1[nH]c(-c2ccc(F)c(C(F)(F)F)c2)nc2ccccc12 [GL-700] | 41 nM | 2300 nM | –
N#CCOc1nc(-c2ccc(F)c(C(F)(F)F)c2)nc2ccccc12 [GL-701] | – | 250 nM | –
COc1cc(C(=O)/C=C/c2ccc3ccccc3n2)cc(OC)c1OC [GL-713] | 550 nM | 3000 nM | –
COc1ccc(/C=C/C(=O)c2cc(OC)c(OC)c(OC)c2)c(OC)c1 [GL-714] | 1100 nM | 5200 nM | –
Oc1nc(-c2ccc(F)cc2)nc2ccccc12 [GL-717] | 1900 nM | 3900 nM | –
O=c1[nH]c(-c2cccc(C(F)(F)F)c2)nc2ccccc12 [GL-728] | 200 nM | – | –
N#CCOc1nc(-c2cccc(C(F)(F)F)c2)nc2ccccc12 [GL-729] | – | 50 nM | –
N#CCOc1ccc(-c2nc(OCC#N)c3ccccc3n2)cc1 [GL- 561] | – | 3600 nM | –
COc1cc(/C=C/c2ccc(OC)cc2OC)cc(OC)c1 [TMS, reference compound] | – | – | IC50 (HEK; [2]): 10 µM; IC50 (HEK; [3]): > 10 µM; IC50 (CYP1B1; Table 1, read-out: CYP1B1 IC50): 8.3 nM

Continued, in another order:

IC50 (CYP1B1; Table 3, read-out: IC50 1B1) | IC50 (CYP1A1; Table 3, read-out: IC50 1A1) | SMILES | also measured
– | 5500 nM and 3500 nM | N#CCOc1ccc(-c2nc3ccccc3[nH]2)cc1 [GL509] | HEK cell viability % at 10 μM (HEK; Table 3, HEK): 75%; IC50 [1]: 8.36 µM
0.51 nM and 1.3 nM | 1230 nM and 1180 nM | COc1cc(OCC#N)ccc1-c1nc2ccccc2c(=O)[nH]1 [GL521] | IC50 [1]: > 10 µM
– | > 10000 nM | N#CCOc1ccc(-c2nc3ccccc3[nH]2)cc1 [GL523] | HEK cell viability % at 10 μM (HEK; Table 3, HEK): 93.4%
51 nM | > 10000 nM | N#CCOc1ccc(/C=N/c2ccccc2C(N)=O)cc1 [GL542] | –
– | 4400 nM | N#CCOc1ccc(-c2nc3ccccc3c(=O)[nH]2)c(OCC#N)c1 [GL545] | –
20.4 nM | 3500 nM | N#CCOc1ccc(-c2nc3ccccc3c(=O)[nH]2)cc1OCC#N [GL546] | –
1.8 nM | > 10000 nM | COc1cc(-c2nc3ccc(C#Cc4ccccc4)cc3c(=O)[nH]2)ccc1OCC#N [GL552] | –
3.8 nM | 4760 nM | COc1ccc(-c2nc3ccccc3c(=O)[nH]2)cc1 [GL553] | –
3.5 nM | 3330 nM | COc1ccc(-c2nc(OCC#N)c3ccccc3n2)cc1 [GL554] | –
6.7 nM | 2590 nM | COc1ccc(-c2nc(OC)c3ccccc3n2)cc1 [GL556] | –
< 0.7 nM | 2460 nM | COc1nc(-c2ccc(OCC#N)cc2)nc2ccccc12 [GL558] | –
< 2.5 nM | 1940 nM | N#CCOc1ccc(-c2nc(OCCCCCCBr)c3ccccc3n2)cc1 [GL564] | IC50 [1]: > 10 µM
< 2.5 nM | 1870 nM | N#CCOc1ccc(-c2nc(OCCCCCCN=[N+]=[N-])c3ccccc3n2)cc1 [GL565] | IC50 [1]: > 10 µM
< 2.5 nM | 1280 nM | CC(C)(C)OC(=O)NCCCOc1nc(-c2ccc(OCC#N)cc2)nc2ccccc12 [GL571] | IC50 [1]: > 10 µM
< 2.5 nM | 2120 nM | N#CCOc1ccc(-c2nc(OCCCN)c3ccccc3n2)cc1 [GL572] | IC50 [1]: > 10 µM
6.1 nM | – | [N-]=[N+]=NCCCOc1ccc(-c2nc3ccccc3c(=O)[nH]2)cc1 [GL627] | –
126 nM | – | N#CCOc1nc(-c2ccc(OCCCN=[N+]=[N-])cc2)nc2ccccc12 [GL628] | –
22 nM | 85 nM | O=c1[nH]c(-c2ccc(Cl)cc2)nc2ccccc12 [GL642] | –
0.1 nM | 125 nM | N#CCOc1nc(-c2ccc(Cl)cc2)nc2ccccc12 [GL643] | –
85 nM | 320 nM | Fc1ccc(-c2nc3ccccc3[nH]2)cc1C(F)(F)F [GL-706] | –
44 nM | 760 nM | c1ccc2nc(-c3nc4ccccc4[nH]3)ccc2c1 [GL-707] | –
850 nM | 15 nM | N#CCOc1nc(-c2ccc(F)cc2)nc2ccccc12 [GL-718] | –
3000 nM | 5200 nM | Fc1ccc(-c2nc3ccccc3[nH]2)cc1 [GL-719] | –
